Reference: BindingDB's records for doi:10.1021/jm049073+ (University of Innsbruck, 2005)

Target: Sigma non-opioid intracellular receptor 1 (Cavia porcellus)
Assay: Affinity for sigma receptor type 1 of guinea pig using [3H]ifenprodil or (+)-[3H]pentazocine radioligand

Row | Ki [nM] | SMILES
1 | 680 | O=C(O)c1ccc(CCN2CCN(C/C=C/c3ccc(Cl)cc3)CC2)cc1
2 | > 100000 | CC1=C2C[C@H]3[C@@H](CC=C4C[C@@H](O)CC[C@@]43C)[C@@H]2CC[C@]12O[C@]1(C)C[C@H](C)CN[C@H]1[C@H]2C [2',3,6,7a,15'-Pentamethyl-(1'S,2'R,2'R,3R,3aS,5'S,6S,7aR,10'S,11'S)-spiro[perhydrofuro[3,2-b]pyridine-2,14'-tetracyclo[8.7.0.02,7.011,16]heptadeca-7',15'-diene]-5'-ol]
3 | 1 | CCCCCCCCCCCCC(C#N)(CCCN(C)CCc1ccccc1)c1ccccc1 (stereo not drawn) [2-[3-(Methyl-phenethyl-amino)-propyl]-2-phenyl-tetradecanenitrile]
4 | 230 | CCCCCCCOc1ccccc1NC(=O)OC(C)CN(CC)CC (stereo not drawn) [(2-Heptyloxy-phenyl)-carbamic acid 2-diethylamino-1-methyl-ethyl ester]
5 | 1.3 | CN(c1nc2ccccc2s1)C1CCN(CCCCOc2ccccc2)C1 (stereo not drawn) [Benzothiazol-2-yl-methyl-[1-(4-phenoxy-butyl)-pyrrolidin-3-yl]-amine]
6 | 26700 | NC(=Nc1nc(-c2cc3ccccc3[nH]2)cs1)NCc1ccccc1 [N-Benzyl-N'-[4-(1H-indol-2-yl)-thiazol-2-yl]-guanidine]

Row | SMILES | Ki [nM]
7 | C[C@H]1CCC2[C@@H](C)[C@H]3[C@H](C[C@H]4[C@@H]5CC=C6C[C@@H](O)CC[C@]6(C)[C@H]5CC[C@]34C)N2C1 (stereo partly drawn) [4a,6a,7,10-tetramethyl-(2S,4aR,4bS,6aS,6bR,7S,10S,12aS,13aS,13bR)-2,3,4,4a,4b,5,6,6a,6b,7,7a,8,9,10,11,12a,13,13a,13b,14-icosahydro-1H-naphtho[2',1':4,5]indeno[1,2-b]indolizin-2-ol] | 74
8 | CC[C@H]1CC2C[C@H]3C4Nc5ccc(OC)cc5C4CCN(C2)C13 (stereo partly drawn) [17-ethyl-3,13-diazapentacyclo[13.3.1.02,10.04,9.013,18]nonadeca-4,6,8-trien-7-yl methyl ether] | 8550
